Results: ChEMBL document CHEMBL1141395, “2-(S)-phenethylaminothiazolones as potent, orally efficacious inhibitors of 11beta-hydroxysteriod dehydrogenase type 1” (J Med Chem, 2007)

Experiments:
[1] = Cmax in Sprague-Dawley rat at 10 mg/kg, po; format: ADME, organism-based; design: dose 10 mg/kg, route oral; conditions: in vivo
[2] = Volume of distribution in Sprague-Dawley rat at 2 mg/kg, iv; format: ADME, organism-based; design: dose 2 mg/kg, route intravenous; conditions: in vivo, read-out: Vss
[3] = Clearance in Sprague-Dawley rat at 2 mg/kg, iv; format: ADME, organism-based; design: dose 2 mg/kg, route intravenous; conditions: in vivo
[4] = Oral bioavailability in Sprague-Dawley rat at 10 mg/kg, po; format: ADME, organism-based; conditions: in vivo
[5] = biological target: T1, 11-beta-hydroxysteroid dehydrogenase 1 (Homo sapiens, UniProt P28845)
T1 sequence (P28845 whole entry): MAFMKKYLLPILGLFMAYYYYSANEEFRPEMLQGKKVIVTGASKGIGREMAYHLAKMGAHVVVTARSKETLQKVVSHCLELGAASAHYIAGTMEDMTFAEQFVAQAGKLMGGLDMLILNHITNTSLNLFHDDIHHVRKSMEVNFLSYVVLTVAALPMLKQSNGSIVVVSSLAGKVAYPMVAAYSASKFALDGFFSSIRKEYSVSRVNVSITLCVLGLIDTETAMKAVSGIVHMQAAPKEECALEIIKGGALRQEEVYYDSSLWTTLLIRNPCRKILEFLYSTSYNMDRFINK
Description: Displacement of [3H]cortisone from human recombinant 11beta-HSD1 by SPA

[6] = biological target: T1, 11-beta-hydroxysteroid dehydrogenase 1; remark: listed apart in the source
Description: Inhibition of human 11beta-HSD1 over expressed in CHO cells by whole cell assay

[7] = biological target: 11-beta-hydroxysteroid dehydrogenase type 2 (Homo sapiens, UniProt P80365); assay: Inhibition of human 11beta-HSD2
11-beta-hydroxysteroid dehydrogenase type 2, sequence (P80365 whole entry, looked up): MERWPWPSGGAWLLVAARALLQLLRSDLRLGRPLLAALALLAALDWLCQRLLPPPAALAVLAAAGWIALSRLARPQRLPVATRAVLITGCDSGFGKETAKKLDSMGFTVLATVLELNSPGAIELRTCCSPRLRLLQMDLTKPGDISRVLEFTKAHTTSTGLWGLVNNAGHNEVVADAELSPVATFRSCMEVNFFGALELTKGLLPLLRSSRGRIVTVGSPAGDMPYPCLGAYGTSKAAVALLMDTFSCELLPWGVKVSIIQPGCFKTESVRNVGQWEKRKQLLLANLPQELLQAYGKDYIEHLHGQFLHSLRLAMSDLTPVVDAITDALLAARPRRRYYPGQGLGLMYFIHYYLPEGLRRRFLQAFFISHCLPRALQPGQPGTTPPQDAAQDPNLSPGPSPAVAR

Glucocorticoid receptor = biological target: T2, Glucocorticoid receptor (Homo sapiens, UniProt P04150); assay: Inhibition of glucocorticoid receptor
T2 sequence (P04150 whole entry): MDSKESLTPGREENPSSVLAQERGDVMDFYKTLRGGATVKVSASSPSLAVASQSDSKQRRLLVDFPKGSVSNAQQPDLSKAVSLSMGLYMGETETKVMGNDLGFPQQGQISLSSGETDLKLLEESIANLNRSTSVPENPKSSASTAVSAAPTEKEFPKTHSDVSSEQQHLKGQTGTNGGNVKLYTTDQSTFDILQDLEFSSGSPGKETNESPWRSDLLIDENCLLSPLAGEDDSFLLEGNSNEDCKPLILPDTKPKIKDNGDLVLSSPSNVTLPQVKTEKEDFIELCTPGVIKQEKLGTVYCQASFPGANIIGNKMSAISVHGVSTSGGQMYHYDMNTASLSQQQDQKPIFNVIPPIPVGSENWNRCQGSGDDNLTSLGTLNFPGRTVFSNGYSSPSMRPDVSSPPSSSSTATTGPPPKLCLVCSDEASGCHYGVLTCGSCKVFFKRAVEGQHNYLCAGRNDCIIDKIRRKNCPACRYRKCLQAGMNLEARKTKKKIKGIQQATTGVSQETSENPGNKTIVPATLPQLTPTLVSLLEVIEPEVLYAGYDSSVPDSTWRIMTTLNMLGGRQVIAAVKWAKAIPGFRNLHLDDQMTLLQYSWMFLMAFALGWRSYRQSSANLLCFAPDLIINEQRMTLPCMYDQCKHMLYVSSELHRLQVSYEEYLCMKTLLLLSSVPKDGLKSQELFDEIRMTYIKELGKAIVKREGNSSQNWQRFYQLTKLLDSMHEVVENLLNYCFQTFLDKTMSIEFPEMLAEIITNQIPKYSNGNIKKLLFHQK

[8] = biological target: 11-beta-hydroxysteroid dehydrogenase 1 (Mus musculus, UniProt P50172); assay: Inhibition of murine 11beta-HSD1
11-beta-hydroxysteroid dehydrogenase 1 (Mus musculus, UniProt P50172), sequence (P50172 whole entry): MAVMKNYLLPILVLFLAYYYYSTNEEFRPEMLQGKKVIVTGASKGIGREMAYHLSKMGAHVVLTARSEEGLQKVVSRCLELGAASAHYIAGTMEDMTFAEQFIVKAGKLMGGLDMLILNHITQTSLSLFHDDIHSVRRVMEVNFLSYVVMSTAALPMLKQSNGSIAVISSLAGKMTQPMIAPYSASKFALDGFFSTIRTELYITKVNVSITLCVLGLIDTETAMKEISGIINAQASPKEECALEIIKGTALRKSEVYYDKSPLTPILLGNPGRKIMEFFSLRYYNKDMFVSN

[9] = biological target: 11-beta-hydroxysteroid dehydrogenase 1 (Mus musculus) (UniProt P50172); assay: Reduction of 11beta-HSD1 activity in C57/B16 mouse at 30 mg/kg, po after 2 hrs; format: organism-based; design: dose 30 mg/kg; scale not given: the % may be the effect or the level left
11-beta-hydroxysteroid dehydrogenase 1 (Mus musculus), sequence (P50172 whole entry, looked up): as the sequence (P50172 whole entry) above

[10] = biological target: 11-beta-hydroxysteroid dehydrogenase 1 (Mus musculus) (UniProt P50172); assay: Reduction of 11beta-HSD1 activity in C57/B16 mouse at 30 mg/kg, po after 6 hrs; format: organism-based; design: dose 30 mg/kg; scale not given: the % may be the effect or the level left
[11] = Drug level in adipose in C57/B16 mouse at 30 mg/kg, po after 2 hrs; format: ADME, organism-based; design: dose 30 mg/kg, route oral; conditions: read-out: Drug uptake
[12] = Drug level in adipose in C57/B16 mouse at 30 mg/kg, po after 6 hrs; format: ADME, organism-based; design: dose 30 mg/kg, route oral; conditions: read-out: Drug uptake
[13] = Drug level in C57/B16 mouse plasma at 30 mg/kg, po after 2 hrs; format: ADME, organism-based; design: dose 30 mg/kg, route oral
[14] = Drug level in C57/B16 mouse plasma at 30 mg/kg, po after 6 hrs; format: ADME, organism-based; design: dose 30 mg/kg, route oral

C[C@H](NC1=NC(=O)[C@](C)(C(F)(F)F)S1)c1ccccc1F
Cmax [1]: 1230 ng/mL
Vd [2]: 1.66 L/kg
clearance [3]: 9.6 mL/min/kg
bioavailability [4]: 50%
Ki [5]: 0.048 µM
IC50 [6]: 0.096 µM

C[C@H](NC1=NC(=O)C(C)(C(C)(C)F)S1)c1ccccc1F (some centres not stated)
Cmax [1]: 1080 ng/mL
Vd [2]: 1.66 L/kg
clearance [3]: 14.8 mL/min/kg
bioavailability [4]: 47%

CC(C)[C@]1(C)SC(N[C@@H](C)c2ccccc2F)=NC1=O
Cmax [1]: 176 ng/mL
Vd [2]: 5.73 L/kg
clearance [3]: 42.8 mL/min/kg
bioavailability [4]: 20%

C[C@H](NC1=NC(=O)C(C)(C(F)(F)F)S1)c1ccccc1F (some centres not stated)
Cmax [1]: 1040 ng/mL
Vd [2]: 2.98 L/kg
clearance [3]: 8.35 mL/min/kg
bioavailability [4]: 55%
Ki [5]: 0.02 µM
IC50 [6]: 0.056 µM

CC(C)C1(C)SC(NCc2ccccc2)=NC1=O (configuration not stated)
Ki [5]: 0.065 µM
IC50 [6]: 0.053 µM

C[C@H](NC1=NC(=O)[C@@](C)(C(F)(F)F)S1)c1ccccc1F
Cmax [1]: 4630 ng/mL
Vd [2]: 1.2 L/kg
clearance [3]: 3.13 mL/min/kg
bioavailability [4]: 75%
IC50 [7]: > 10 µM
IC50 (Glucocorticoid receptor): > 50 µM
Ki [8]: 0.13 µM
Activity [9]: 88%
Activity [10]: 91%
concentration at 2 h [11]: 234 µM
concentration at 6 h [12]: 113 µM
concentration at 2 h [13]: 55 µM
concentration at 6 h [14]: 35 µM
Ki [5]: 0.022 µM
IC50 [6]: 0.033 µM
